Values quoted from earlier work in patent US20120322868A1, “FOOD PRODUCTS, PREPARATION, AND THERAPEUTIC METHODS” (priority 2010, published 2012).

Experiments:
cancer = details: dietary protein, laboratory animals (Campbell)
[1] = system: immunological functions and plasma albumin; details: HIV+ patients
atherosclerosis = details: apolipoprotein E-deficient mice
[2] = system: insulin levels and insulin sensitivity; details: hyperinsulinemic patients with polycystic ovary syndrome

Compound | promotion of cancer (cancer) | immunological functions and plasma albumin concentrations [1] | atherosclerosis (atherosclerosis) | insulin levels and insulin sensitivity [2]
casein | promotes cancer | – | – | –
CC(=O)N[C@@H](CS)C(=O)O [NAC, N-acetyl-L-cysteine] | – | marked increase | reduce atherosclerosis | improves insulin levels and insulin sensitivity
